Data taken from patent publication US9149038B2, “4-amino-6-(heterocyclic)picolinates and 6-amino-2-(heterocyclic)pyrimidine-4-carboxylates and their use as herbicides” (Dow AgroSciences LLC, priority 2013, dated 2015).
Read-outs that look alike come from different tables or passages of the source.

How the values were obtained:
[1] = tested on: Key Broadleaf Weed and Crop Species; test: Post-Emergent Test II: postemergent herbicidal activity, visual rating after 14 d (Table 7); type: in vivo; conditions: post-emergence, 336 h; for pest or weed control at 70 g/ha: 70 g ai/ha; for pest or weed control at 140 g/ha: 140 g ai/ha; for pest or weed control at 35 g/ha: 35 g ai/ha
Method in brief: (§1)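 Visual scoring at 14 d, 0 (no injury) to 100 (complete kill), relative to untreated plants. Postemergent overhead track-sprayer application, 187 L/ha, at a top rate plus serial ½×–1/16× rates, to plants grown 7–21 d at about 23–29° C day under a 15 h photoperiod, then subirrigated.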

[2] = tested on: Key Grass and Sedge Weeds as well as Grass Crops; test: Post-Emergent Test II: postemergent herbicidal activity, visual rating after 14 d (Table 8); type: in vivo; conditions: post-emergence, 336 h; for pest or weed control at 35 g/ha: 35 g ai/ha; for pest or weed control at 70 g/ha: 70 g ai/ha; for pest or weed control at 140 g/ha: 140 g ai/ha
Method in brief: as §1

[3] = ABUTH: velvetleaf (Abutilon theophrasti), read-out: Visual Growth Reduction (%) 14 Days After Application ABUTH
[4] = AMARE: redroot pigweed (Amaranthus retroflexus), read-out: Visual Growth Reduction (%) 14 Days After Application AMARE
[5] = BRSNN: oilseed rape, canola (Brassica napus), read-out: Visual Growth Reduction (%) 14 Days After Application BRSNN
[6] = CHEAL: lambsquarters (Chenopodium album), read-out: Visual Growth Reduction (%) 14 Days After Application CHEAL
[7] = EPHHL: wild poinsettia (Euphorbia heterophylla), read-out: Visual Growth Reduction (%) 14 Days After Application EPHHL
[8] = HELAN: sunflower (Helianthus annuus), read-out: Visual Growth Reduction (%) 14 Days After Application HELAN
[9] = lambsquarters (Chenopodium album), read-out: Visual Growth Reduction (%) 14 Days After Application CHEAL
[10] = oilseed rape, canola (Brassica napus), read-out: Visual Growth Reduction (%) 14 Days After Application BRSNN
[11] = redroot pigweed (Amaranthus retroflexus), read-out: Visual Growth Reduction (%) 14 Days After Application AMARE
[12] = sunflower (Helianthus annuus), read-out: Visual Growth Reduction (%) 14 Days After Application HELAN
[13] = velvetleaf (Abutilon theophrasti), read-out: Visual Growth Reduction (%) 14 Days After Application ABUTH
[14] = wild poinsettia (Euphorbia heterophylla), read-out: Visual Growth Reduction (%) 14 Days After Application EPHHL
[15] = barnyardgrass (Echinochloa crus-galli), read-out: Visual Growth Reduction (%) 14 Days After Application ECHCG
[16] = barnyardgrass (Echinochloa crus-galli), read-out: Visual Growth Reduction (%) 14 Days After Application, ECHCG
[17] = giant foxtail (Setaria faberi), read-out: Visual Growth Reduction (%) 14 Days After Application SETFA
[18] = giant foxtail (Setaria faberi), read-out: Visual Growth Reduction (%) 14 Days After Application, SETFA
[19] = maize, corn (Zea mays), read-out: Visual Growth Reduction (%) 14 Days After Application ZEAMX
[20] = maize, corn (Zea mays), read-out: Visual Growth Reduction (%) 14 Days After Application, ZEAMX
[21] = rice (Oryza sativa), read-out: Visual Growth Reduction (%) 14 Days After Application ORYSA
[22] = rice (Oryza sativa), read-out: Visual Growth Reduction (%) 14 Days After Application, ORYSA
[23] = wheat, spring (Triticum aestivum), read-out: Visual Growth Reduction (%) 14 Days After Application TRZAS
[24] = wheat, spring (Triticum aestivum), read-out: Visual Growth Reduction (%) 14 Days After Application, TRZAS
[25] = yellow nutsedge (Cyperus esculentus), read-out: Visual Growth Reduction (%) 14 Days After Application CYPES
[26] = yellow nutsedge (Cyperus esculentus), read-out: Visual Growth Reduction (%) 14 Days After Application, CYPES

Nc1c(F)c(-c2ccc(Cl)c3c2OC(F)(F)O3)nc(C(=O)O)c1Cl [Compound 82]
75 to 84%: pest or weed control at 140 g/ha [1, 3] | pest or weed control at 140 g/ha [2, 24]
85 to 94%: pest or weed control at 70 g/ha [1, 8] | pest or weed control at 35 g/ha [1, 12]
60 to 74%: pest or weed control at 70 g/ha [1, 3] | pest or weed control at 70 g/ha [2, 20] | pest or weed control at 140 g/ha [2, 20] | pest or weed control at 35 g/ha [2, 23] | pest or weed control at 70 g/ha [2, 24]
30 to 44%: pest or weed control at 35 g/ha [1, 13] | pest or weed control at 70 g/ha [2, 22] | pest or weed control at 140 g/ha [2, 22] | pest or weed control at 70 g/ha [2, 26]
0 to 29%: pest or weed control at 70 g/ha [1, 7] | pest or weed control at 140 g/ha [1, 7] | pest or weed control at 35 g/ha [1, 14] | pest or weed control at 35 g/ha [2, 15] | pest or weed control at 70 g/ha [2, 16] | pest or weed control at 140 g/ha [2, 16] | pest or weed control at 35 g/ha [2, 17] | pest or weed control at 70 g/ha [2, 18] | pest or weed control at 140 g/ha [2, 18] | pest or weed control at 35 g/ha [2, 21] | pest or weed control at 35 g/ha [2, 25]
95 to 100%: pest or weed control at 70 g/ha [1, 4] | pest or weed control at 140 g/ha [1, 4] | pest or weed control at 70 g/ha [1, 5] | pest or weed control at 140 g/ha [1, 5] | pest or weed control at 70 g/ha [1, 6] | pest or weed control at 140 g/ha [1, 6] | pest or weed control at 140 g/ha [1, 8] | pest or weed control at 35 g/ha [1, 9] | pest or weed control at 35 g/ha [1, 10] | pest or weed control at 35 g/ha [1, 11]
45 to 59%: pest or weed control at 35 g/ha [2, 19] | pest or weed control at 140 g/ha [2, 26]

COC(=O)c1nc(-c2cc3c(cc2F)OC(F)(F)O3)c(F)c(N)c1F [Compound 21]
45 to 59%: pest or weed control at 35 g/ha [1, 12] | pest or weed control at 70 g/ha [1, 12] | pest or weed control at 140 g/ha [2, 19]
60 to 74%: pest or weed control at 140 g/ha [1, 12] | pest or weed control at 140 g/ha [2, 17]
0 to 29%: pest or weed control at 35 g/ha [1, 9] | pest or weed control at 70 g/ha [1, 9] | pest or weed control at 140 g/ha [1, 9] | pest or weed control at 35 g/ha [1, 10] | pest or weed control at 70 g/ha [1, 10] | pest or weed control at 140 g/ha [1, 10] | pest or weed control at 35 g/ha [1, 11] | pest or weed control at 70 g/ha [1, 11] | pest or weed control at 140 g/ha [1, 11] | pest or weed control at 35 g/ha [1, 13] | pest or weed control at 70 g/ha [1, 13] | pest or weed control at 140 g/ha [1, 13] | pest or weed control at 35 g/ha [1, 14] | pest or weed control at 70 g/ha [1, 14] | pest or weed control at 140 g/ha [1, 14] | pest or weed control at 35 g/ha [2, 15] | pest or weed control at 70 g/ha [2, 15] | pest or weed control at 140 g/ha [2, 15] | pest or weed control at 35 g/ha [2, 17] | pest or weed control at 70 g/ha [2, 17] | pest or weed control at 35 g/ha [2, 19] | pest or weed control at 70 g/ha [2, 19] | pest or weed control at 35 g/ha [2, 21] | pest or weed control at 70 g/ha [2, 21] | pest or weed control at 140 g/ha [2, 21] | pest or weed control at 35 g/ha [2, 23] | pest or weed control at 70 g/ha [2, 23] | pest or weed control at 140 g/ha [2, 23] | pest or weed control at 35 g/ha [2, 25] | pest or weed control at 70 g/ha [2, 25] | pest or weed control at 140 g/ha [2, 25]
